Measured values as given in ChEMBL document CHEMBL4673218, “Kojyl cinnamate esters are peroxisome proliferator-activated receptor α/γ dual agonists” (Bioorg Med Chem, 2018).
The source made the active and inactive calls. The rule behind the calls is not given here.

Assays:
[1] = Induction of adipogenesis in human AT-MSC assessed as adiponectin secretion in IDX medium incubated for 5 days by ELISA; assay type: functional; details: adipose tissue derived mesenchymal stem cell
[2] = biological target: T1, PPAR alpha/gamma (Homo sapiens) (UniProt P37231+Q07869); assay: Agonist activity at PPARalpha/PPARgamma in human NHEK cells assessed as upregulation of FASN mRNA at 10 uM incubated for 3 days by qRT-PCR analysis; assay type: cell-based; details: time 3.0 day
T1 sequence (P37231 whole entry, looked up): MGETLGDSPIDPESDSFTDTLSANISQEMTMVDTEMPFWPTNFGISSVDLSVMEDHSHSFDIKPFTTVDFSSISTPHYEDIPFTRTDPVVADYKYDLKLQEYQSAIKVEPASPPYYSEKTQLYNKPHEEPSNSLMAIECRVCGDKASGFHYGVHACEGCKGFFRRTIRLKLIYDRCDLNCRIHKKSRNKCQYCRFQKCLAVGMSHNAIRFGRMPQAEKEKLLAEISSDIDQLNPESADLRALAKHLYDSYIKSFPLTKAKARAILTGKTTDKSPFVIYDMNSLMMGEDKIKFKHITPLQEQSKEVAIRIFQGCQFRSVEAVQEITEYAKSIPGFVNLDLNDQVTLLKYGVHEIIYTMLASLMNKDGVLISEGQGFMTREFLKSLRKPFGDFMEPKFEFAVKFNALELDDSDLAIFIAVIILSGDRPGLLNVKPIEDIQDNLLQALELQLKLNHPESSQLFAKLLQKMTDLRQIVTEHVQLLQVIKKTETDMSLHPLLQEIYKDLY
T1 sequence (Q07869 whole entry, looked up): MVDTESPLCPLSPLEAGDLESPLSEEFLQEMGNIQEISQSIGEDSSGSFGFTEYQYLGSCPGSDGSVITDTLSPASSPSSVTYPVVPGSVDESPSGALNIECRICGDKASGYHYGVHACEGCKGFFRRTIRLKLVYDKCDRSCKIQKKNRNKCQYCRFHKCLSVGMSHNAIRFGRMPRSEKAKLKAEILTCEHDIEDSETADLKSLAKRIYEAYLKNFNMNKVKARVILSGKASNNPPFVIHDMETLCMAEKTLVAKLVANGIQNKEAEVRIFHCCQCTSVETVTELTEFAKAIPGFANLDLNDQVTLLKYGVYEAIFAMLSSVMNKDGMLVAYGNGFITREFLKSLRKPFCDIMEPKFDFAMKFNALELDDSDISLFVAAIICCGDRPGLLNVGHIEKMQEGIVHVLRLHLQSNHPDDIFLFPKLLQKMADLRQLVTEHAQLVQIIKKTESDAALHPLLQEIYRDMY

[3] = biological target: T1, PPAR alpha/gamma (Homo sapiens); assay: Agonist activity at PPARalpha/PPARgamma in human AT-MSC cells assessed as upregulation of FABP4 mRNA at 10 uM incubated for 3 days by qRT-PCR analysis; assay type: cell-based; details: Adipose tissue derived mesenchymal stem cell, filed as agonist, time 3.0 day
[4] = biological target: T1, PPAR alpha/gamma (Homo sapiens); assay: Agonist activity at PPARalpha/PPARgamma in human AT-MSC cells assessed as upregulation of FADS2 mRNA at 10 uM incubated for 3 days by qRT-PCR analysis; assay type: cell-based; details: Adipose tissue derived mesenchymal stem cell, filed as agonist, time 3.0 day
[5] = biological target: T2, Glucocorticoid receptor (Homo sapiens) (UniProt P04150); assay: Binding affinity to human glucocorticoid receptor at 30 uM by competitive binding based TR-FRET assay
T2 sequence (whole entry): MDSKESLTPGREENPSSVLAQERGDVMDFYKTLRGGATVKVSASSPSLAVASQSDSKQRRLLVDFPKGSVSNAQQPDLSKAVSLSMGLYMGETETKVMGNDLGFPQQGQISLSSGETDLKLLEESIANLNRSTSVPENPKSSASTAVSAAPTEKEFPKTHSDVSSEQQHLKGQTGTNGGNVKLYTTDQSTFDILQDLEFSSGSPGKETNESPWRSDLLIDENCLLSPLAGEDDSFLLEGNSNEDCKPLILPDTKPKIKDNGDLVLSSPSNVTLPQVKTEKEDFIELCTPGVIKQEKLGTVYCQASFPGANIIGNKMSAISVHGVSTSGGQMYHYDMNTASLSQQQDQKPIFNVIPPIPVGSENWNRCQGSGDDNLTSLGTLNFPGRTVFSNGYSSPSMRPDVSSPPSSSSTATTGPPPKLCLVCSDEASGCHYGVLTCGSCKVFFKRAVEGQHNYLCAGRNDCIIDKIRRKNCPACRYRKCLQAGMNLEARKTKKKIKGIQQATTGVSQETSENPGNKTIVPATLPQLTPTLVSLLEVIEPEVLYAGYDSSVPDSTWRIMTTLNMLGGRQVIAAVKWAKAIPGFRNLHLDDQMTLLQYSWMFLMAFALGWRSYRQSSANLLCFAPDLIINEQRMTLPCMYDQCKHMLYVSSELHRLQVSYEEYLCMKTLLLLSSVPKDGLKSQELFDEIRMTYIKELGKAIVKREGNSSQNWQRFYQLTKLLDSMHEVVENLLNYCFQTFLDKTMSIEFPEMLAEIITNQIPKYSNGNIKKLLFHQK

## COc1ccc(OC)c(/C=C/C(=O)OCc2cc(=O)c(O)co2)c1
[1]
  EC50: 7.6 µM
[2]
  Activity: inactive
[3]
  Activity: Active
[4]
  Activity: Active
[5]
  Activity: inactive
